Laboratory results as given in article PMC4529246 (PLoS ONE, 2015).
Where two headings read alike, the source gives them in different places.

Key:
Assay in all cases: cell-based
system xc- (H4) [1] = target: T1, system xc- (H4) (Homo sapiens, UniProt Q9UPY5); parameters: [14C]-cystine uptake inhibition, 2 min, PBS with Na+, scintillation counting; conditions: PBS (+Na+), 2 min
T1 construct: gene SLC7A11; native endogenous transporter in intact H4 neuroglioma cells
T1 sequence (Q9UPY5 1-501): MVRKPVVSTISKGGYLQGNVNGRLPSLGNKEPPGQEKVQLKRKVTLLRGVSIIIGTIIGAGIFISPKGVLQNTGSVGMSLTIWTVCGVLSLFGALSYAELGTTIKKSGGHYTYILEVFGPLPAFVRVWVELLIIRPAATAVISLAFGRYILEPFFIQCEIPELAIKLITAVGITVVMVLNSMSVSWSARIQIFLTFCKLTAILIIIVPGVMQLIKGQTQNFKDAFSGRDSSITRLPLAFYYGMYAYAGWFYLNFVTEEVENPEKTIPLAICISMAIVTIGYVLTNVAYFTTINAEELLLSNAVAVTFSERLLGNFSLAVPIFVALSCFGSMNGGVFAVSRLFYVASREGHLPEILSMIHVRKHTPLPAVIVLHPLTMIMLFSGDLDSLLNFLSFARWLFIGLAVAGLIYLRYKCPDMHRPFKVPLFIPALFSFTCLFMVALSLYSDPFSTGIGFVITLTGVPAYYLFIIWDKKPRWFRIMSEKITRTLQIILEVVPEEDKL
T1 sequence (P08195 1-529 partner): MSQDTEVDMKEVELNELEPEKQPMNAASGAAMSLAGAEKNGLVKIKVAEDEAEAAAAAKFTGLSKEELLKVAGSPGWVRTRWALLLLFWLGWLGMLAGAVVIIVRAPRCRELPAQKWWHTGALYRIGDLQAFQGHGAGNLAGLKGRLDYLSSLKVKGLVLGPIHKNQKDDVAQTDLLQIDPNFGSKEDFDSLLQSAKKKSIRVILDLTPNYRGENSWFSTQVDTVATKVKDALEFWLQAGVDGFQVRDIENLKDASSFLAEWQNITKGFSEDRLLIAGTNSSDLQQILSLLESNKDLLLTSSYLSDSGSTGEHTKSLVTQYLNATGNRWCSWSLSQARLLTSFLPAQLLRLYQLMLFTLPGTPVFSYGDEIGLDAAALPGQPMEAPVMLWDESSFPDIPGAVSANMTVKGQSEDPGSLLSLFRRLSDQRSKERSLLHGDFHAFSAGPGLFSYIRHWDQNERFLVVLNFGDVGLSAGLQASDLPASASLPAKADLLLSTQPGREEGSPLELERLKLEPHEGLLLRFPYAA
Method: Early characterization work was carried out in a 12-well format and the assay later adapted and characterized in the 96-well format. Briefly, CCF-STTG-1 cells were seeded at 0.04 x 10^6 cells per well in 0.2 ml growth media and grown to confluence. […] After 15 min, uptake was terminated by three washes (115 μl/well) with ice-cold UB. Cells were then lysed with 0.1 N NaOH (100 μl/well) and the radioactivity in the cells measured using scintillant-coated 96-well plates (PerkinElmer: 6005630) and normalized to protein contents. The assay was further characterized for the dependence of ^14C-cystine uptake on protein content (mg/ml) and the time and temperature of incubation. To determine IC50 values, CCF-STTG-1 cells were similarly seeded and grown to confluence. On day 3, transport was initiated upon the addition of pre-warmed (37°C) [^14C]-cystine 80 μM (5.631 μCi/μmol) in Earle’s Balanced Salt Solution (EBSS, Sigma: E3024, contents in mM: NaCl 116.4, NaHCO3 26.2, NaH2PO4 1.02, KCl 5.36, MgSO4 0.81, CaCl2 1.8 and Glucose 5.56, pH 7.4) in the presence and absence of inhibitors. […]

system xc- (IMR90) [2] = target: T2, system xc- (IMR90) (Homo sapiens, UniProt Q9UPY5); parameters: species or system IMR-90; [14C]-cystine uptake inhibition, 2 min, PBS with Na+, scintillation counting; conditions: PBS (+Na+), 2 min
T2 construct: gene SLC7A11; native endogenous transporter in intact IMR-90 fibroblasts
T2 sequence (Q9UPY5 1-501): T1 sequence (Q9UPY5 1-501)
T2 sequence (P08195 1-529 partner): T1 sequence (P08195 1-529 partner)
Method: Early characterization work was carried out in a 12-well format and the assay later adapted and characterized in the 96-well format. Briefly, CCF-STTG-1 cells were seeded at 0.04 x 10^6 cells per well in 0.2 ml growth media and grown to confluence. […] Cells were then lysed with 0.1 N NaOH (100 μl/well) and the radioactivity in the cells measured using scintillant-coated 96-well plates (PerkinElmer: 6005630) and normalized to protein contents. The assay was further characterized for the dependence of ^14C-cystine uptake on protein content (mg/ml) and the time and temperature of incubation. To determine IC50 values, CCF-STTG-1 cells were similarly seeded and grown to confluence. On day 3, transport was initiated upon the addition of pre-warmed (37°C) [^14C]-cystine 80 μM ([…], Sigma: E3024, contents in mM: NaCl 116.4, NaHCO3 26.2, NaH2PO4 1.02, KCl 5.36, MgSO4 0.81, CaCl2 1.8 and Glucose 5.56, pH 7.4) in the presence and absence of inhibitors. […] Identical protocols were followed for IC50 determinations using UB or phosphate buffered saline (PBS; contents in mM: S1 Table) with […] The rates of [^14C]-cystine influx and cystine-induced glutamate efflux were closely examined using CCF-STTG-1 (grade IV astrocytoma) cells in order to understand the reasons for the lower IC50 values and longer time-dependence in the cystine-induced glutamate release assay. […]

system xc- (IMR90) [3] = target: T2, system xc- (IMR90); parameters: species or system IMR-90; cystine-induced glutamate release inhibition, 30 min, PBS with Na+; conditions: PBS (+Na+), 30 min; read-out: Glutamate Release IMR90
Method: Early characterization of the cystine-induced glutamate release assay was carried out in the 96-well format and later adapted to the 384-well format. Briefly, CCF-STTG-1 cells were seeded at 0.04 x 10^6 cells per 96-well and grown to confluence. […] Cells were maintained for 2h at 37°C in an incubator with 5% CO2. At the end of the incubation period, cystine-induced glutamate release was measured directly. The assay was further characterized for the dependence of cystine-induced glutamate release on protein content (mg/ml) and the time of incubation. […] Cells were maintained at 37°C in an incubator with 5% CO2 and the glutamate released over a 2h period measured. Identical protocols were followed for IC50 determinations using UB or PBS with CCF-STTG-1, neuroglioma (H4) or fibroblast (IMR-90) cells. U-87 MG cells were seeded at 0.06 x 10^6 cells per 96-well (in 0.3 ml growth media) and tested on Day2. When running the assay in the 384-well format, CCF-STTG-1 cells were seeded at 0.01 x 10^6 cells per well (in 0.025 ml growth media) and grown to confluence. […] Cells were maintained for 3h at 37°C in an incubator with 5% CO2. At the end of the incubation period, cystine-induced glutamate release was measured directly. The rates of [^14C]-cystine influx and cystine-induced glutamate efflux were closely examined using CCF-STTG-1 (grade IV astrocytoma) cells in order to understand the reasons for the lower IC50 values and longer time-dependence in the cystine-induced glutamate release assay. […] The experiments were repeated also using IMR-90 fibroblast cells derived from normal embryonic lung and a second cancer line, the H4 neuroglioma cells. […] (DOCX) Click here for additional data file.

system xc- (H4) [4] = target: T1, system xc- (H4); parameters: cystine-induced glutamate release inhibition, 30 min, PBS with Na+; conditions: PBS (+Na+), 30 min; read-out: Glutamate Release H4
Method: Early characterization of the cystine-induced glutamate release assay was carried out in the 96-well format and later adapted to the 384-well format. Briefly, CCF-STTG-1 cells were seeded at 0.04 x 10^6 cells per 96-well and grown to confluence. […] Cells were maintained for 2h at 37°C in an incubator with 5% CO2. At the end of the incubation period, cystine-induced glutamate release was measured directly. The assay was further characterized for the dependence of cystine-induced glutamate release on protein content (mg/ml) and the time of incubation. […] Cells were maintained at 37°C in an incubator with 5% CO2 and the glutamate released over a 2h period measured. Identical protocols were followed for IC50 determinations using UB or PBS with CCF-STTG-1, neuroglioma (H4) or fibroblast (IMR-90) cells. U-87 MG cells were seeded at 0.06 x 10^6 cells per 96-well (in 0.3 ml growth media) and tested on Day2. When running the assay in the 384-well format, CCF-STTG-1 cells were seeded at 0.01 x 10^6 cells per well (in 0.025 ml growth media) and grown to confluence. […] Cells were maintained for 3h at 37°C in an incubator with 5% CO2. At the end of the incubation period, cystine-induced glutamate release was measured directly. […]

N[C@@H](CCC(=O)O)C(=O)O [glutamate]
IC50 (system xc- (H4) [1]): 200 ± 20 µM
IC50 (system xc- (IMR90) [2]): 200 ± 3 µM

O=C(O)c1cc(/N=N/c2ccc(S(=O)(=O)Nc3ccccn3)cc2)ccc1O [SAS]
IC50 (system xc- (IMR90) [3]): 3 ± 0.2 µM

N[C@H](C(=O)O)c1ccc(C(=O)O)cc1 [(S)-4CPG]
IC50 (system xc- (IMR90) [3]): 2 ± 0.4 µM
IC50 (system xc- (H4) [1]): 20 ± 0.4 µM

N[C@@H](C(=O)O)c1ccc(C(=O)O)cc1 [(R)-4CPG]
IC50 (system xc- (IMR90) [3]): > 100 µM
IC50 (system xc- (H4) [4]): > 100 µM
